Test results reported in patent US20060079439A1, “Elastin prevents occlusion of body vessels by vascular smooth muscle cells” (priority 2002, published 2006).
“Also recorded” adds a separate entry of the source. Where two headings read alike, the source gives them in different places. *1 amine or outer side, *2 acyl side, *3 side chain or, on linkers, in order; H or OH if unused. Where a SMILES comes first, the peptide text is derived from it. Bridges are numbered along the chain shown (N, C = ends). Roman numbers before positions name the chains, in order. [ ]: non-standard residue; d: D form. Actinocin(9to1) = Cc1c2oc3c(C)ccc(C(=O)[*:1])c3nc-2c(C(=O)[*:2])c(N)c1=O; NMeV = CN[C@H](C(=O)O)C(C)C; Sar = CNCC(=O)O

Experiments:
[1] = test system: vascular smooth muscle cells; format: cell-based, mouse; conditions: for effect of inhibitor on elastin peptide induced cell migration / effect of inhibitor on migration in response to PDGF: 10 μM genistein, 100 ng/ml pertussis toxin; for effect of inhibitor on elastin peptide induced cell migration: 100 ng/ml β-protomer, 20 μM Y27632; for effect on migration of Eln −/− vsmcs towards elastin: pertussis toxin 100 ng/ml, preliminary experiments; for effect of inhibitor on migration in response to PDGF: 30 ng/ml PDGF
Protocol: (§1) Instead, we postulated that elastin signals vsmcs to migrate and adhere to the elastic lamellae. To test this hypothesis we used a modified Boyden chamber assay (Li et al., 1998; Raines et al., 1993). This assay system consists of two adjacent chambers separated by a semipermeable membrane. The amount of cells placed in one chamber (upper) that migrate to the other chamber (lower) is measured by counting the number of cells that have passed through to the undersurface of the filter.
Briefly, chemotaxis was measured using a modified Boyden chamber method. […] Prior to their addition to the upper chamber, vascular smooth muscle cells were incubated with either 20 μM EDTA (inhibitor of integrin receptors), 10 μM genistein (inhibitor of receptor tyrosine kinases), 100 ng/ml pertussis toxin, 100 ng/ml β-protomer, 20 μM Y27632, or the cells were left untreated. […] Cells were added to the upper chamber and incubated for three hours.

[2] = test system: Eln −/− vascular smooth muscle cells; conditions: for effect of pretreatment on tropoelastin- or elastin peptide-induced actin stress fiber formation: 100 μM actinomycin D, 10 μg/ml cyclohexamide, 100 ng/ml pertussis toxin or β protomer, 20 μM EDTA, 10 μM genistein; for effect on induction of contractile organization in Eln −/− vsmcs by elastin: pertussis toxin 100 ng/ml, preliminary experiments; for formation of organized actin stress fibers / actin myofilament polymerization: 3 hours, 1 ug/ml tropoelastin, 10 nM elastin peptide or 10 nM control peptide
[3] = test system: α smooth muscle actin and vinculin in elastin −/− vascular smooth muscle cells; assay: Western blot of protein levels; format: cell-based, mouse; conditions: three hours; 1 μg/ml tropoelastin, 10 μM elastin peptide
Protocol: We performed two experiments to address this model. […] Cells were washed with ice-cold DPBS and lysed in an additional 1 ml of Laemmli sample buffer. Following lysis, cells were collected, boiled, pelleted, and resolved by SDS-PAGE. The resolved samples were transferred to a membrane, blocked with 5% milk/PBST, incubated with either an anti-α smooth muscle actin antibody or an anti-vinculin antibody, and visualized using chemiluminescence.

RhoA = RhoA activation, Rhotekin bead pull-down and Western blot; format: cell-based, mouse; conditions: for GTP-bound (activated) RhoA: lysates of treated −/− cells
Excerpt: Briefly, cell lysates from treated or untreated −/− cells were immunoprecipitated using Rhotekin-coated beads which recognize GTP-bound RhoA. […] Rho-γGTP served as a positive control and Rho-GDP served as a negative control.

[4] = test system: −/− vascular smooth muscle cells; assay: F:G actin ratio, sedimentation assay; format: cell-based, mouse; conditions: for increase in the F:G actin ratio: versus untreated cells
[5] = test system: cAMP levels in Eln −/− vsmcs; format: cell-based, mouse; conditions: for forskolin induced cAMP levels: 10 μM forskolin pretreatment, 1 ug/ml tropoelastin, 10 μM elastin peptide or control peptide
[6] = test system: Eln −/− vascular smooth muscle cells; assay: Focal adhesion organization, vinculin immunofluorescence; format: cell-based, mouse; conditions: 3 hours, 1 ug/ml tropoelastin, 10 nM elastin peptide or 10 nM control peptide
COS cells = assay: Modified Boyden chamber chemotaxis assay; format: cell-based
Excerpt: as §1, with “In Eln −/− arteries, vascular smooth muscle cells accumulated in the subendothelial space and occluded the artery. […] Because the elastic lamellae are highly fenestrated allowing cells to migrate through, it is unlikely that elastin simply forms a physical cage that contains vsmcs. Instead,” for “Instead,”

CHO cells = assay: Modified Boyden chamber chemotaxis assay; format: cell-based
Excerpt: as §1, with “In Eln −/− arteries, vascular smooth muscle cells accumulated in the subendothelial space and occluded the artery. […] Because the elastic lamellae are highly fenestrated allowing cells to migrate through, it is unlikely that elastin simply forms a physical cage that contains vsmcs. Instead,” for “Instead,”

[7] = test system: Eln +/+ and Eln −/− vsmcs; conditions: trypan blue, end of the experiment (72 hours)
[8] = test system: Eln +/+ vascular smooth muscle cells; assay: Actin stress fiber organization, immunofluorescence scoring; format: cell-based, mouse; conditions: elastin treatment
[9] = test system: Eln +/+ and Eln −/− vsmcs; conditions: added to the media; 24, 48, and 72 hours
[10] = test system: Eln +/+ vascular smooth muscle cells; conditions: recombinant tropoelastin treatment
[11] = test system: GiRK channel (GiRK 1 and GiRK 4) in A2058 cells; assay: GiRK channel activity in transfected A2058 cells; format: cell-based; conditions: A2058 cells transiently transfected with GiRK 1 and GiRK 4
Excerpt: Briefly, A2058 cells which are known to be responsive to elastin signaling were used in these studies. A2058 cells were transiently transfected with GiRK 1 and GIRK 4 inorder to form functional heteromultimeric GiRK channels. Transfected cells were contacted with either tropoelastin, a peptide containing 7 repeats of the tropoelastin fragment VGVAPG, or a control peptide.

[12] = listed as recombinant tropoelastin

With `O=C(O)CN(CCN(CC(=O)O)CC(=O)O)CC(=O)O` [EDTA, ethylenediamine tetraacetic acid] the “effect of inhibitor on migration in response to collagen” value ([1]; 10 μg/ml collagen type I, 20 μM EDTA) was “able to block”, the “effect of inhibitor on elastin peptide induced cell migration” value ([1]; 20 μM EDTA) was “insensitive” and the “effect on migration of Eln −/− vsmcs towards elastin” value [1] was “insensitive”. The “effect of pretreatment on tropoelastin- or elastin peptide-induced actin stress fiber formation” value [2] was “not altered” and the “effect on induction of contractile organization in Eln −/− vsmcs by elastin” value [2] was “little or no inhibition”.

With `C[C@@H](N)[C@H]1CC[C@H](C(=O)Nc2ccncc2)CC1` [Y-27632] the “effect of inhibitor on elastin peptide induced cell migration” value ([1]; 20 μM EDTA) was “does not block” and the “effect of pretreatment on tropoelastin- or elastin peptide-induced actin stress fiber formation” value [2] was “significantly decreased”.

With `Cc1c2oc3c(C)ccc(C(=O)N[C@@H]4C(=O)N[C@H](C(C)C)C(=O)N5CCC[C@H]5C(=O)N(C)CC(=O)N(C)[C@@H](C(C)C)C(=O)O[C@@H]4C)c3nc-2c(C(=O)N[C@@H]2C(=O)N[C@H](C(C)C)C(=O)N3CCC[C@H]3C(=O)N(C)CC(=O)N(C)[C@@H](C(C)C)C(=O)O[C@@H]2C)c(N)c1=O` [actinomycin D] (I: T[dV]P[Sar][NMeV] / II: T[dV]P[Sar][NMeV]; ester I:1-I:C, II:1-II:C; linker I:N-II:N via Actinocin(9to1)) the “effect of pretreatment on tropoelastin- or elastin peptide-induced actin stress fiber formation” value [2] was “maintained”.

With `C[C@@H]1C[C@@H]([C@H](O)CC2CC(=O)NC(=O)C2)C(=O)[C@@H](C)C1` [cyclohexamide] the “effect of pretreatment on tropoelastin- or elastin peptide-induced actin stress fiber formation” value [2] was “maintained”.

In the case of `O=c1c(-c2ccc(O)cc2)coc2cc(O)cc(O)c12` [genistein], the “effect of inhibitor on migration in response to PDGF” value [1] is reported as “able to block”, the “effect of inhibitor on elastin peptide induced cell migration” value ([1]; 20 μM EDTA) is reported as “insensitive” and the “effect of pretreatment on tropoelastin- or elastin peptide-induced actin stress fiber formation” value [2] is reported as “not altered”.

For “VGVAPG (A bioactive fragment of tropoelastin.) [elastin peptide]”, the “protein levels of α smooth muscle actin or vinculin” value [3] was “does not alter”, the “GTP-bound (activated) RhoA” value (RhoA) was “significant increase” and the “vascular smooth muscle migration relative to tropoelastin and PDGF” value ([1]; 20 nM elastin peptide, three hours) was “comparable to both tropoelastin and PDGF”. The “increase in the F:G actin ratio” value [4] was 3 fold, the “forskolin induced cAMP levels” value [5] was “decrease” and the “formation of organized actin stress fibers / actin myofilament polymerization” value [2] was “induced actin myofilament polymerization”. The “dose dependence of the increase of actin stress fibers” value ([2]; three hours, 0.2 nM to 20 μM) was “dose dependent”, the “treatment time of maximal effect on actin stress fiber formation” value ([2]; time course 15 minutes to 24 hours) was “about 6 hours” and the “organization of focal adhesions (vinculin)” value (shortened to “organization … (vinculin)”) [6] was “induced organization of focal adhesions”.

cholera toxin [reference compound] was tested, and the cAMP levels [5] was “increased”.

“control peptide: control peptide (SEQ ID NO: 4) (VSLSPG; Control random fragment.) [reference compound]” was tested, and the “increase in the F:G actin ratio” value [4] was “not”, the “forskolin induced cAMP levels” value [5] was “not” and the “formation of organized actin stress fibers / actin myofilament polymerization” value [2] was “did not produce this effect”.

With pertussis toxin the “RhoA activation by tropoelastin or elastin peptide after pretreatment” value (RhoA; pretreatment with pertussis toxin) was “unable to activate RhoA”, the “effect of inhibitor on migration in response to PDGF” value [1] was “no impact; also recorded: insensitive” and the “effect of inhibitor on elastin peptide induced cell migration” value ([1]; 20 μM EDTA) was “blocked”. For the same molecule, the “effect on migration of Eln −/− vsmcs towards elastin” value [1] was “sensitive”, the “effect of pretreatment on the tropoelastin or elastin peptide effect on the F:G actin ratio” value ([4]; 100 ng/ml pretreatment) was “significantly decreased” and the “effect on the tropoelastin or elastin peptide effect on forskolin induced cAMP levels” value [5] was “blocked”. The “effect of pretreatment on tropoelastin- or elastin peptide-induced actin stress fiber formation” value [2] was “significantly decreased” and the “effect on induction of contractile organization in Eln −/− vsmcs by elastin” value [2] was “sensitive”.

B1: tropoelastin: protein encoded by the elastin gene; human amino acid sequence SEQ ID NO: 2; used as recombinant tropoelastin (protein, listed as Homo sapiens)
chain: MAGLTAAAPRPGVLLLLLSILHPSRPGGVPGAIPGGVPGGVFYPGAGLGALGGGALGPGGKPLKPVPGGLAGAGLGAGLGAFPAVTFPGALVPGGVADAAAAYKAAKAGAGLGGVPGVGGLGVSAGAVVPQPGAGVKPGKVPGVGLPGVYPGGVLPGARFPGVGVLPGVPTGAGVKPKAPGVGGAFAGIPGVGPFGGPQPGVPLGYPIKAPKLPGGYGLPYTTGKLPYGYGPGGVAGAAGKAGYPTGTGVGPQAAAAAAAKAAAKFGAGAAGVLPGVGGAGVPGVPGAIPGIGGIAGVGTPAAAAAAAAAAKAAKYGAAAGLVPGGPGFGPGVVGVPGAGVPGVGVPGAGIPVVPGAGIPGAAVPGVVSPEAAAKAAAKAAKYGARPGVGVGGIPTYGVGAGGFPGFGVGVGGIPGVAGVPSVGGVPGVGGVPGVGISPEAQAAAAAKAAKYGVGTPAAAAAKAAAKAAQFGLVPGVGVAPGVGVAPGVGVAPGVGLAPGVGVAPGVGVAPGVGVAPGIGPGGVAAAAKSAAKVAAKAQLRAAAGLGAGIPGLGVGVGVPGLGVGAGVPGLGVGAGVPGFGAGADEGVRRSLSPELREGDPSSSQHLPSTPSSPRVPGALAAAKAAKYGAAVPGVLGGLGALGGVGIPGGVVGAGPAAAAAAAKAAAKAAQFGLVGAAGLGGLGVGGLGVPGVGGLGGIPPAAAAKAAKYGAAGLGGVLGGAGQFPLGGVAARPGFGLSPIFPGGACLGKACGRKRK
In the case of B1, the “migration of COS cells exposed to elastin” value (COS cells) is reported as “No migration”, the “migration of CHO cells exposed to elastin” value (CHO cells) is reported as “No migration” and the “protein levels of α smooth muscle actin or vinculin” value [3] is reported as “does not alter”. The “GTP-bound (activated) RhoA” value (RhoA) was “significant increase”, the cell viability [7] was over 98% and the “actin stress fiber organization in Eln +/+ cells” value ([8]; listed as elastin) was “no affect”. For the same molecule, the “actin stress fiber organization in Eln +/+ cells” value [8, 12] was “does not affect”, the “proliferation of Eln −/− and Eln +/+ vsmcs” value [9] was “reduced to similar levels” and the “migration of murine vsmcs to recombinant tropoelastin” value [1] was “migrated aggressively”. For the same molecule, the “migration without concentration gradient (checkerboard analysis)” value ([1]; 200 ng to 200 ng gradient) was “minimal migration”, the “amount of migration induced, relative to platelet derived growth factor” value ([1]; data not shown) was “equivalent to the standard dose of 30 ng/ml of platelet derived growth factor” and the “migration of Eln +/+ vsmcs relative to Eln −/− vsmcs” value ([1]; exogenous tropoelastin) was “did not migrate towards exogenous tropoelastin as readily as Eln −/− vsmcs”. For the same molecule, the “increase in the F:G actin ratio” value [4] was 3 fold, the “vinculin organization in Eln +/+ vsmcs” value [10] was “does not affect vinculin organization” and the “cAMP levels in the presence of cholera toxin” value [5] was “significantly reduced”. The “forskolin induced cAMP levels” value [5] was “decrease”, the “increase in cAMP” value ([5]; elastin treatment alone) was 3 fold and the “level of cAMP in the presence of pertussis toxin” value ([5]; pertussis toxin and elastin) was “raises the level of cAMP”. The GiRK channel activity [11] was “activation”, the “formation of organized actin stress fibers / actin myofilament polymerization” value [2] was “induced actin myofilament polymerization” and the “formation of organized actin stress fibers / actin myofilament polymerization” value [2, 12] was “induces the formation of organized actin stress fibers”. For the same molecule, the “organization … (vinculin)” value [6] was “induced organization of focal adhesions” and the “organization … (vinculin)” value [6, 12] was “induces well-defined focal adhesions”.
